Assay results published in patent US8476037B2, “Method for screening of antiviral agents” (priority 2010, dated 2013).

Molecular target: M2(1-49) channel forming segment of the M2 protein (Influenza A virus, UniProt P0DOF5)
Type: cell-based

Chain of M2(1-49) channel forming segment of the M2 protein (P0DOF5 1-49 limits assumed): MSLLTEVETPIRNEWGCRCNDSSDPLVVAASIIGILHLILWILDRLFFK

## Cl.NC12CC3CC(CC(C3)C1)C2 [amantadine, 1-aminoadamantane hydrochloride]
  expression of M2(1-49) protein in SPP culture: the M2(1-49) protein was expressed
[…], addition of amantadine
  rescue of expression of M2(1-49): rescued
